Measurements: patent US20240116985A1, “STAPLED PEPTIDES AND METHODS THEREOF” (priority 2020, published 2024)

Assays:
[1] = molecular target: T1, full-length beta-Catenin (Uniprot ID P35222) (Homo sapiens, UniProt P35222); test: Fluorescence polarization IC50 (beta-catenin / 5FAM-TCF4 10-53 competition); assay type: binding; details: fluorescence polarization; read-out: beta-Catenin FP IC50
T1 construct: 10 nM full-length beta-Catenin (Uniprot ID P35222)
T1 sequence (P35222 1-781): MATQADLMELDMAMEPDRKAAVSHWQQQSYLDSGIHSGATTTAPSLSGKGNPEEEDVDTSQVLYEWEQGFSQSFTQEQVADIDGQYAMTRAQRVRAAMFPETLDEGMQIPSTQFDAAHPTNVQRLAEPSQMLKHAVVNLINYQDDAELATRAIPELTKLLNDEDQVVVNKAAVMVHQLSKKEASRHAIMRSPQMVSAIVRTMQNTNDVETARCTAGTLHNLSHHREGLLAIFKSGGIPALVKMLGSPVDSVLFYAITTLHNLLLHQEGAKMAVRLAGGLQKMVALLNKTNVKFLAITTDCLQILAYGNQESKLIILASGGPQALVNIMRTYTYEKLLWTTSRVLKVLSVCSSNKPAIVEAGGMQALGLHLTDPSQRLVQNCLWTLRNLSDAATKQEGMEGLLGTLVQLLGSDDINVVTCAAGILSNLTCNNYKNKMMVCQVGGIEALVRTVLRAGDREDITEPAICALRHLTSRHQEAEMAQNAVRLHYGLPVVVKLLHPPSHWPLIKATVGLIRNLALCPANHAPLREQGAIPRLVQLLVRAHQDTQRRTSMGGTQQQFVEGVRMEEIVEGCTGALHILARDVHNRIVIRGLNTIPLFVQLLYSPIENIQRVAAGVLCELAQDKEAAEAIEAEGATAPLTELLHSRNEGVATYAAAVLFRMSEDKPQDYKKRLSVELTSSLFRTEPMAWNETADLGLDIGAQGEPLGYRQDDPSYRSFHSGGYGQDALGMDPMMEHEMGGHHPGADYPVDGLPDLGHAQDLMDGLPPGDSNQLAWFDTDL

[2] = molecular target: T2, beta-catenin/TCF4 engagement (Homo sapiens, UniProt P35222); test: Nano-BRET target engagement assay (B-cat-Halo & TCF4-Luc in HEK293 cells); assay type: cell-based; details: absolute IC50; read-out: NanoBRET Abs IC50
T2 construct: expressed in transfected cells; host or cells: HEK293
T2 sequence (P35222 1-781): T1 sequence (P35222 1-781)

SMILES	IC50 [1]	IC50 [2]
CC(=O)N1CCC[C@]12CC=CCCCC1(CCCC=CCCCOC(=O)N3CC[C@@](C(=O)N[C@@H](Cc4ccccc4Cl)C(=O)N[C@@H](Cc4csc5ccccc45)C(=O)N[C@@H](CCC(N)=O)C(N)=O)(C3)NC(=O)[C@H](CC(C)C)NC(=O)[C@H](Cc3ccccc3)NC(=O)[C@H](C)NC(=O)[C@H](CCCCNC(C)C)NC(=O)[C@H](CC(=O)O)NC(=O)[C@H](CC(=O)O)NC1=O)NC(=O)[C@H](CC(C)(C)C)NC(=O)[C@H](CC(=O)O)NC2=O (stereo partly drawn) [I-1275, Ac-PL3-Asp-Npg-B5-Asp-Asp-iPrLys-Ala-Phe-Leu-PyrS2-2C1F-BztA-Gln-NH2]	0.009 µM	27.8 µM
CC(=O)N1CCC[C@]12CC=CCCCC1(CCCC=CCCCOC(=O)N3CC[C@@](C(=O)N[C@@H](Cc4ccccc4Cl)C(=O)N[C@@H](Cc4csc5ccccc45)C(=O)N[C@H](C(N)=O)[C@@H](C)O)(C3)NC(=O)[C@H](CC(C)C)NC(=O)[C@H](Cc3ccccc3)NC(=O)[C@H](C)NC(=O)[C@H](CCCCNC(C)C)NC(=O)[C@H](CC(=O)O)NC(=O)[C@H](CC(=O)O)NC1=O)NC(=O)[C@H](CC(C)(C)C)NC(=O)[C@H](CC(=O)O)NC2=O (stereo partly drawn) [I-1276, Ac-PL3-Asp-Npg-B5-Asp-Asp-iPrLys-Ala-Phe-Leu-PyrS2-2C1F-BztA-Thr-NH2]	0.01 µM	> 20 µM
CC(=O)N1CCC[C@]12CC=CCCCC1(CCCC=CCCCOC(=O)N3CC[C@@](C(=O)N[C@@H](Cc4ccccc4Cl)C(=O)N[C@@H](Cc4csc5ccccc45)C(=O)N[C@@H](CC(C)C)C(N)=O)(C3)NC(=O)[C@H](CC(C)C)NC(=O)[C@H](Cc3ccccc3)NC(=O)[C@H](C)NC(=O)[C@H](CCCCNC(C)C)NC(=O)[C@H](CC(=O)O)NC(=O)[C@H](CC(=O)O)NC1=O)NC(=O)[C@H](CC(C)(C)C)NC(=O)[C@H](CC(=O)O)NC2=O (stereo partly drawn) [I-1277, Ac-PL3-Asp-Npg-B5-Asp-Asp-iPrLys-Ala-Phe-Leu-PyrS2-2C1F-BztA-Leu-NH2]	0.017 µM	> 20 µM
CC(=O)N1CCC[C@]12CC=CCCCC1(CCCC=CCCCCCC[C@@](C)(C(=O)N[C@@H](Cc3ccccc3)C(=O)N[C@@H](Cc3csc4ccccc34)C(=O)N[C@@H](CCC(N)=O)C(N)=O)NC(=O)[C@H](CCO)NC(=O)[C@H](Cc3ccccc3)NC(=O)[C@H](C)NC(=O)[C@H](C)NC(=O)[C@H](CC(=O)O)NC(=O)[C@H](CC(=O)O)NC1=O)NC(=O)[C@H](CC(C)(C)C)NC(=O)[C@H](CC(=O)O)NC2=O (stereo partly drawn) [I-1388, Ac-PL3-Asp-Npg-B5-Asp-Asp-Ala-Ala-Phe-Hse-S8-Phe-BztA-Gln-NH2]	0.018 µM	11.3 µM
CC(=O)N1CCC[C@]12CC=CCCCC1(CCCC=CCCCCCC[C@@](C)(C(=O)N[C@@H](Cc3ccsc3)C(=O)N[C@@H](Cc3csc4ccccc34)C(=O)N[C@@H](CCC(N)=O)C(N)=O)NC(=O)[C@H](CCO)NC(=O)[C@H](Cc3ccccc3)NC(=O)[C@H](C)NC(=O)[C@H](C)NC(=O)[C@H](CC(=O)O)NC(=O)[C@H](CC(=O)O)NC1=O)NC(=O)[C@H](CC(C)(C)C)NC(=O)[C@H](CC(=O)O)NC2=O (stereo partly drawn) [I-1389, Ac-PL3-Asp-Npg-B5-Asp-Asp-Ala-Ala-Phe-Hse-S8-3Thi-BztA-Gln-NH2]	0.009 µM	9.2 µM
CC(=O)N1CCC[C@]12CC=CCCCC1(CCCC=CCCCCCC[C@@](C)(C(=O)N[C@@H](Cc3cccs3)C(=O)N[C@@H](Cc3csc4ccccc34)C(=O)N[C@@H](CCC(N)=O)C(N)=O)NC(=O)[C@H](CC(N)=O)NC(=O)[C@H](Cc3ccccc3)NC(=O)[C@H](C)NC(=O)[C@H](C)NC(=O)[C@H](CC(=O)O)NC(=O)[C@H](CC(=O)O)NC1=O)NC(=O)[C@H](CC(C)(C)C)NC(=O)[C@H](CC(=O)O)NC2=O (stereo partly drawn) [I-1391, Ac-PL3-Asp-Npg-B5-Asp-Asp-Ala-Ala-Phe-Asn-S8-2Thi-BztA-Gln-NH2]	0.011 µM	35 µM
CC(=O)N1CCC[C@]12CC=CCCCC1(CCCC=CCCCCCC[C@@](C)(C(=O)N[C@@H](Cc3cccs3)C(=O)N[C@@H](Cc3csc4ccccc34)C(=O)N[C@@H](CCC(N)=O)C(N)=O)NC(=O)[C@H](CCO)NC(=O)[C@H](Cc3ccccc3)NC(=O)[C@H](C)NC(=O)[C@H](C)NC(=O)[C@H](CC(=O)O)NC(=O)[C@H](CC(=O)O)NC1=O)NC(=O)[C@H](CC(C)(C)C)NC(=O)[C@H](CC(=O)O)NC2=O (stereo partly drawn) [I-1392, Ac-PL3-Asp-Npg-B5-Asp-Asp-Ala-Ala-Phe-Hse-S8-2Thi-BztA-Gln-NH2]	0.013 µM	18.3 µM
CC(=O)N1CCC[C@]12CC=CCCCC1(CCCC=CCCCCCC[C@@](C)(C(=O)N[C@@H](Cc3cccs3)C(=O)N[C@@H](Cc3csc4ccccc34)C(=O)N[C@H](CO)[C@@H](C)O)NC(=O)[C@H](CCO)NC(=O)[C@H](Cc3ccccc3)NC(=O)[C@H](C)NC(=O)[C@H](C)NC(=O)[C@H](CC(=O)O)NC(=O)[C@H](CC(=O)O)NC1=O)NC(=O)[C@H](CC(C)(C)C)NC(=O)[C@H](CC(=O)O)NC2=O (stereo partly drawn) [I-1393, Ac-PL3-Asp-Npg-B5-Asp-Asp-Ala-Ala-Phe-Hse-S8-2Thi-BztA-Thro1]	0.034 µM	18.6 µM
CC(=O)N1CCC[C@]12CC=CCCCC1(CCCC=CCCCCCC[C@@](C)(C(=O)N[C@@H](Cc3ccccc3Cl)C(=O)N[C@@H](Cc3csc4ccccc34)C(=O)N[C@@H](CCC(N)=O)C(N)=O)NC(=O)[C@H](CC(N)=O)NC(=O)[C@H](Cc3ccccc3)NC(=O)[C@H](C)NC(=O)[C@H](C)NC(=O)[C@H](CC(=O)O)NC(=O)[C@H](CC(=O)O)NC1=O)NC(=O)[C@H](CC(C)(C)C)NC(=O)[C@H](CC(=O)O)NC2=O (stereo partly drawn) [I-1394, Ac-PL3-Asp-Npg-B5-Asp-Asp-Ala-Ala-Phe-Asn-S8-2C1F-BztA-Gln-NH2]	0.009 µM	15.9 µM
CC(=O)N1CCC[C@]12CC=CCCCC1(CCCC=CCCCCCC[C@@](C)(C(=O)N[C@@H](Cc3ccccc3Cl)C(=O)N[C@@H](Cc3csc4ccccc34)C(=O)N[C@@H](CCC(N)=O)C(N)=O)NC(=O)[C@H](CCO)NC(=O)[C@H](Cc3ccccc3)NC(=O)[C@H](C)NC(=O)[C@H](C)NC(=O)[C@H](CC(=O)O)NC(=O)[C@H](CC(=O)O)NC1=O)NC(=O)[C@H](CC(C)(C)C)NC(=O)[C@H](CC(=O)O)NC2=O (stereo partly drawn) [I-1395, Ac-PL3-Asp-Npg-B5-Asp-Asp-Ala-Ala-Phe-Hse-S8-2C1F-BztA-Gln-NH2]	0.033 µM	15.4 µM
CC(=O)N1CCC[C@]12CC=CCCCC1(CCCC=CCCCCCC[C@@](C)(C(=O)N[C@@H](Cc3ccccc3C(F)(F)F)C(=O)N[C@@H](Cc3csc4ccccc34)C(=O)N[C@@H](CCC(N)=O)C(N)=O)NC(=O)[C@H](CC(N)=O)NC(=O)[C@H](Cc3ccccc3)NC(=O)[C@H](C)NC(=O)[C@H](C)NC(=O)[C@H](CC(=O)O)NC(=O)[C@H](CC(=O)O)NC1=O)NC(=O)[C@H](CC(C)(C)C)NC(=O)[C@H](CC(=O)O)NC2=O (stereo partly drawn) [I-1396, Ac-PL3-Asp-Npg-B5-Asp-Asp-Ala-Ala-Phe-Asn-S8-2F3MeF-BztA-Gln-NH2]	0.033 µM	15.3 µM
CC(=O)N1CCC[C@]12CC=CCCCC1(CCCC=CCCCCCC[C@@](C)(C(=O)N[C@@H](Cc3ccccc3C(F)(F)F)C(=O)N[C@@H](Cc3csc4ccccc34)C(=O)N[C@@H](CCC(N)=O)C(N)=O)NC(=O)[C@H](CCO)NC(=O)[C@H](Cc3ccccc3)NC(=O)[C@H](C)NC(=O)[C@H](C)NC(=O)[C@H](CC(=O)O)NC(=O)[C@H](CC(=O)O)NC1=O)NC(=O)[C@H](CC(C)(C)C)NC(=O)[C@H](CC(=O)O)NC2=O (stereo partly drawn) [I-1397, Ac-PL3-Asp-Npg-B5-Asp-Asp-Ala-Ala-Phe-Hse-S8-2F3MeF-BztA-Gln-NH2]	0.048 µM	16.4 µM
CC(=O)N1CCC[C@]12CC=CCCCC1(CCCC=CCCCOC(=O)N3CC[C@@](C(=O)N[C@@H](Cc4ccsc4)C(=O)N[C@@H](Cc4csc5ccccc45)C(=O)N[C@@H](CCC(N)=O)C(N)=O)(C3)NC(=O)[C@H](CC(C)C)NC(=O)[C@H](Cc3ccccc3)NC(=O)[C@H](C)NC(=O)[C@H](C)NC(=O)[C@H](CC(=O)O)NC(=O)[C@H](CC(=O)O)NC1=O)NC(=O)[C@H](CC(C)C)NC(=O)[C@H](CC(=O)O)NC2=O (stereo partly drawn) [I-1399, Ac-PL3-Asp-Leu-B5-Asp-Asp-Ala-Ala-Phe-Leu-PyrS2-3Thi-BztA-Gln-NH2]	0.013 µM	17.4 µM
CCCC[C@@H]1NC(=O)[C@H](CC(=O)O)NC(=O)[C@]2(CC=CCCCC3(CCCC=CCCCOC(=O)N4CC[C@@](C(=O)N[C@@H](Cc5ccsc5)C(=O)N[C@@H](Cc5csc6ccccc56)C(=O)N[C@@H](CCC(N)=O)C(N)=O)(C4)NC(=O)[C@H](CC(C)C)NC(=O)[C@H](Cc4ccccc4)NC(=O)[C@H](C)NC(=O)[C@H](C)NC(=O)[C@H](CC(=O)O)NC(=O)[C@H](CC(=O)O)NC3=O)NC1=O)CCCN2C(C)=O (stereo partly drawn) [I-1400, Ac-PL3-Asp-nLeu-B5-Asp-Asp-Ala-Ala-Phe-Leu-PyrS2-3Thi-BztA-Gln-NH2]	0.005 µM	20.3 µM
